Results from ChEMBL document CHEMBL1201862, “PubChem BioAssay data set” (2004).
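Results reflect a 48-hour exposure of cells in 96-well plates to compound at five concentrations. Abbreviation: GI50, concentration required for 50% inhibition of growth.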 The source made the active and inactive calls. No stated cut-off is given here; in the data, active = GI50 up to about 1.1 µM and inactive = higher.

Columns and labels:
Test in all cases: NCI anticancer screen, dose series, 48 h
786-0 = system: 786-0
A498 = system: A498
CAKI-1 = system: CAKI-1
DU-145 = system: DU-145
HOP-62 = system: HOP-62
Hs-578T = system: Hs-578T
KM12 = system: KM12
MCF7 = system: MCF7
MDA-MB-231 = system: MDA-MB-231
MDA-MB-435 = system: MDA-MB-435
NCI-H226 = system: NCI-H226
NCI-H522 = system: NCI-H522
OVCAR-3 = system: OVCAR-3
SF-539 = system: SF-539
SN12C = system: SN12C
SNB-19 = system: SNB-19
SW-620 = system: SW-620
U-251 = system: U-251
UACC-257 = system: UACC-257
SK-MEL-2 = system: SK-MEL-2

Measured: GI50

O=C1CC2[C@@H](N3CCCC3)CCC(N1Cc1ccccc1)C2(O)O (stereo partly drawn)
inactive: 786-0 > 100 µM | A498 > 100 µM | CAKI-1 > 100 µM | DU-145 > 100 µM | HOP-62 > 100 µM | Hs-578T > 100 µM | KM12 > 100 µM | MCF7 > 100 µM | MDA-MB-231 > 100 µM | MDA-MB-435 > 100 µM | NCI-H226 > 100 µM | NCI-H522 > 100 µM | OVCAR-3 > 100 µM | SF-539 > 100 µM | SN12C > 100 µM | SNB-19 > 100 µM | SW-620 > 100 µM | U-251 > 100 µM | UACC-257 > 100 µM

COc1ccc(Cc2cc(Cc3ccc(OC)cc3)cc(Cc3ccc(OC)cc3)c2)cc1
inactive: 786-0 > 100 µM | A498 > 100 µM | DU-145 > 100 µM | HOP-62 > 100 µM | Hs-578T > 100 µM | KM12 > 100 µM | MCF7 > 100 µM | MDA-MB-231 > 100 µM | MDA-MB-435 13.6 µM | NCI-H226 > 100 µM | NCI-H522 > 100 µM | OVCAR-3 > 100 µM | SF-539 > 100 µM | SK-MEL-2 > 100 µM | SN12C > 100 µM | SNB-19 > 100 µM | SW-620 > 100 µM | U-251 > 100 µM | UACC-257 > 100 µM

O=C(/C=C(\Nc1ccccc1O)c1ccc(Br)cc1)C(Cl)(Cl)Cl
inactive: 786-0 14.4 µM | CAKI-1 6.3 µM | DU-145 3.03 µM | HOP-62 13.6 µM | Hs-578T 3.1 µM | KM12 2.75 µM | MCF7 5.21 µM | MDA-MB-231 6.95 µM | MDA-MB-435 8.89 µM | NCI-H226 12.1 µM | NCI-H522 14.9 µM | OVCAR-3 4.34 µM | SF-539 12.7 µM | SK-MEL-2 8.04 µM | SN12C 7.67 µM | SNB-19 6.87 µM | SW-620 3.06 µM | U-251 3.74 µM | UACC-257 7.26 µM

CC1=C(C(=O)NCC(C)O)CC(C(=O)NCC(C)O)=C(C)N1 (stereo not drawn)
inactive: 786-0 > 100 µM | CAKI-1 > 100 µM | DU-145 > 100 µM | HOP-62 > 100 µM | Hs-578T > 100 µM | KM12 > 100 µM | MCF7 > 100 µM | MDA-MB-231 46.5 µM | MDA-MB-435 > 100 µM | NCI-H226 89.7 µM | NCI-H522 > 100 µM | OVCAR-3 > 100 µM | SF-539 > 100 µM | SK-MEL-2 > 100 µM | SN12C > 100 µM | SNB-19 > 100 µM | SW-620 > 100 µM | U-251 > 100 µM | UACC-257 > 100 µM

O=[N+]([O-])c1ccc(Cl)cc1N/N=C/c1cccs1
inactive: 786-0 > 100 µM | CAKI-1 > 100 µM | DU-145 > 100 µM | HOP-62 > 100 µM | Hs-578T 72.4 µM | KM12 > 100 µM | MCF7 9.95 µM | MDA-MB-231 > 100 µM | MDA-MB-435 > 100 µM | NCI-H226 38.5 µM | NCI-H522 > 100 µM | OVCAR-3 > 100 µM | SF-539 > 100 µM | SN12C > 100 µM | SNB-19 > 100 µM | SW-620 > 100 µM | U-251 > 100 µM | UACC-257 > 100 µM

COc1ccc(/C=C/C2=NN(c3cccc(S(=O)(=O)O)c3)C3(C2)SCC(=O)N3c2nc3ccccc3s2)cc1 (stereo not drawn)
inactive: 786-0 76.7 µM | A498 57 µM | CAKI-1 > 100 µM | DU-145 66.5 µM | Hs-578T > 100 µM | KM12 > 100 µM | MCF7 46.8 µM | MDA-MB-231 67 µM | MDA-MB-435 62.4 µM | NCI-H226 24.6 µM | NCI-H522 35.2 µM | SF-539 33.2 µM | SK-MEL-2 95.5 µM | SN12C > 100 µM | SNB-19 97.1 µM | SW-620 > 100 µM | U-251 46.2 µM | UACC-257 83.8 µM

Cc1cc2c(c3oc(C4(C)OC4C4OC4C)cc(=O)c13)C(=O)c1c(O)c(C3CC(C)(N(C)C)C(O)C(C)O3)cc(C3CC(N(C)C)C(O)C(C)O3)c1C2=O (stereo not drawn)
active: 786-0 0.000129 µM | CAKI-1 5.46e-05 µM | DU-145 6.85e-05 µM | HOP-62 5.79e-05 µM | Hs-578T 0.000349 µM | MCF7 2.49e-05 µM | MDA-MB-231 0.000227 µM | MDA-MB-435 9.23e-05 µM | NCI-H522 0.00275 µM | OVCAR-3 0.000191 µM | SF-539 0.000531 µM | SN12C 0.000136 µM | SNB-19 0.0025 µM | SW-620 0.0025 µM | U-251 4.1e-05 µM | UACC-257 0.000116 µM
